Assay results from patent US20080292673A1, “Bioactive agrichemical compositions and use therreof” (priority 2007, published 2008).

System: E. amylovora 153N
Assay: Fire blight on crabapples (Example 287)
Format: in vivo, Snow Drift crabapple trees
Procedure: A study of the bioefficacy of the various agrichemical compositions, including bioactive acid solutions and blends thereof with an antibiotic agrichemical, were evaluated to assess their bioefficacy against fire blight on crabapples. The study was conducted on 5 year old Snow Drift crabapple trees, with each of the compositions being applied to ten trees in two-subplots of five trees, four different times: at 100% bloom-day 1, a second application was made on day 4, a third on day 11 and a final treatment on day 19. The trees were inoculated with E. amylovora […] at a concentration of 4×10^6 cells per milliliter on day 1, following drying of the treatment, with the inoculation being repeated on day 13. Evaluation for fire blight was completed on 100 blossoms for each of the subplots on day 12, day 19 and day 27. Additionally, the incidence of shoot infection and the length of […] evaluated on day 63. The test compositions were prepared by forming solutions of the bioactive agents. Two different dilutions of the MI2 bioactive were evaluated; the first employing 94.46 ml/gallon (25 ml/l) of water (5 ppm of each metal) and the second 188.9 ml/gallon (50 ml/l) of water (10 ppm of each metal). […] Finally, copper hydroxide was diluted at a rate of 1 lb/gallon (119.8 g/l). Each of the compositions and blends were spray applied at a rate of 50 gallons (189.3 l) pre acre. The results are presented as the mean of the counts.

[H]/N=C(/N)N[C@H]1[C@H](O)[C@@H](O)[C@H](O[C@@H]2O[C@@H](C)[C@](O)(C=O)[C@H]2O[C@@H]2O[C@@H](CO)[C@H](O)[C@@H](O)[C@@H]2NC)[C@@H](N/C(N)=N\[H])[C@@H]1O [streptomycin]
shoot blight incidence, in words (evaluated on day 63): greatly reduced | canker, in words (length of cankers evaluated on day 63): appeared to prevent canker
